Key:
[1] = Cytotoxicity against of human polymorphonuclear leukocytes assessed as cell viability by trypan blue dye exclusion assay; design: concentration or dose not given beside the values; settings: read-out: Activity
[2] = Cytotoxicity against mouse L1.2 cells assessed as cell viability by trypan blue dye exclusion assay; assay type: cell-based; design: concentration or dose not given beside the values; settings: read-out: Activity

O=C(O)Cc1ccccc1Nc1c(F)cccc1F
viability [1]: > 95% | viability [2]: > 95%

O=C(O)Cc1ccccc1Oc1ccccc1
viability [1]: > 95% | viability [2]: > 95%

CC(C(N)=O)c1ccccc1Nc1c(Cl)cccc1Cl (configuration not stated)
viability [1]: > 95% | viability [2]: > 95%

CC(C(=O)O)c1ccccc1Nc1c(Cl)cccc1Cl (configuration not stated)
viability [1]: > 95% | viability [2]: > 95%

O=C(O)Cc1ccccc1Cc1c(Cl)cccc1Cl
viability [1]: > 95% | viability [2]: > 95%

CC(C(=O)NCCC[N+](C)(C)C)c1ccccc1Nc1c(Cl)cccc1Cl (configuration not stated)
viability [1]: > 95% | viability [2]: > 95%

Cc1cccc(C)c1NC(=O)C(C)c1ccccc1Nc1c(Cl)cccc1Cl (configuration not stated)
viability [1]: > 95% | viability [2]: > 95%

O=C(O)Cc1ccccc1Nc1ccccc1F
viability [1]: > 95% | viability [2]: > 95%

O=C(O)Cc1ccccc1Nc1ccccc1Cl
viability [1]: > 95% | viability [2]: > 95%

Cc1ccc(Cl)c(Nc2ccccc2CC(=O)O)c1Cl
viability [1]: > 95% | viability [2]: > 95%

CC(C(=O)NCCCN(C)C)c1ccccc1Nc1c(Cl)cccc1Cl (configuration not stated)
viability [1]: > 95% | viability [2]: > 95%

Cc1ccccc1Nc1ccccc1CC(=O)O
viability [1]: > 95% | viability [2]: > 95%

CC(C)Cc1ccc(CC(=O)O)cc1 [IBUFENAC]
viability [1]: > 95% | viability [2]: > 95%

O=C(O)Cc1ccccc1Nc1c(Cl)cccc1Cl [DICLOFENAC]
viability [1]: > 95% | viability [2]: > 95%

Cc1ccc(C(=O)c2ccc(CC(=O)O)n2C)cc1 [TOLMETIN]
viability [1]: > 95% | viability [2]: > 95%

CS(=O)(=O)NC(=O)Cc1ccccc1Oc1ccccc1F
viability [1]: > 95% | viability [2]: > 95%

CC(C(=O)NC(C)(C)C)c1ccccc1Nc1c(Cl)cccc1Cl (configuration not stated)
viability [1]: > 95% | viability [2]: > 95%

COc1ccc2c(c1)c(CC(=O)O)c(C)n2C(=O)c1ccc(Cl)cc1 [INDOMETHACIN]
viability [1]: > 95% | viability [2]: > 95%

O=C(O)Cc1ccccc1Nc1ccccc1
viability [1]: > 95% | viability [2]: > 95%

O=C(O)Cc1ccccc1Nc1cc(Cl)ccc1Cl
viability [1]: > 95% | viability [2]: > 95%

CC(C(=O)NCCO)c1ccccc1Nc1c(Cl)cccc1Cl (configuration not stated)
viability [1]: > 95% | viability [2]: > 95%

CC(C(=O)NS(C)(=O)=O)c1ccccc1Nc1c(Cl)cccc1Cl (configuration not stated)
viability [1]: > 95% | viability [2]: > 95%

O=C(O)Cc1ccccc1Oc1ccccc1Cl
viability [1]: > 95% | viability [2]: > 95%

O=C(O)Cc1cccc(C(=O)c2ccccc2)c1
viability [1]: > 95% | viability [2]: > 95%

CC(C)Cc1ccc([C@@H](C)C(=O)O)cc1 [(R)-IBUPROPHEN]
viability [1]: > 95% | viability [2]: > 95%

O=C(O)Cc1ccccc1Oc1ccccc1F
viability [1]: > 95% | viability [2]: > 95%
